# How the values were obtained:
# ACAT = ACAT Assay (in vitro); assay type: biochemical; details: dose = 10 μM; rat liver microsomes
# Description: This assay measures the activity of ACAT by measuring the ACAT-mediated transfer of tritiated oleic acid from acyl-CoA to cholesterol to give labelled cholesterol oleate. Rat liver microsomes are used as the source of ACAT. Assays are performed in round bottom microtiterplates using a total incubation volume of 50 μL. Each incubation well receives 10 μL assay buffer (0.5M KHPO4, 10 μM dithiothreitol, pH 7.4), 7.5 μL of 40 mg/mL BSA (Bovine Serum Albumin) and 12.5 μg of microsomal protein. The test compound (in sufficient amount to bring the final concentration to from 0.1 to 25 μM), reference compound, or vehicle control is added and the final volume brought to 47 μL. The microtiterplate is then floated on the surface of a 37° C. water bath for fifteen minutes. Incubations are started by the addition of 3 μL ^3 H-acyl CoA (1 μCi/well, final concentration of 10 μM acyl CoA). The plate is then returned to the water bath for 15 minutes. The incubations are then terminated by application of 15 μL from each incubation to individual lanes on a thin layer plate (Silica Gel GF 20×20 cm). Standards are applied to several lanes so that the cholesterol ester band can be identified. After drying, the plates are eluted with 90:10:1 petroleum ether:ether:HOAc. The standards are visualized via iodine vapor, and the regions corresponding to cholesterol ester are scraped into 7 mL scintillation vials. 4 mL of scintillant are added to each vial, and the radioactivity quantified. Background count is determined by the boiled controls. Full activity is determined by activity in the presence of vehicle. The percent inhibition is calculated by subtracting the background from both control and test samples, and the test value is calculated as a percentage of the control. For IC50 determinations, the inhibition is plotted against drug doses on a log scale and the concentration at which 50% inhibition is obtained is determined.
# (§1) Using the assay methods described above, the compounds of Examples 1-9 were tested for in vitro ACAT inhibitory activity and for the ability to lower the level of cholesteryl esters in vivo.
# cholesteryl esters = test: In Vivo Assay of Hypolipidemic Agents Using the Hyperlipidemic Hamster; details: Mesocricetus auratus, po, 168 h, oral gavage once daily, 7 days, versus control, read-out: % Reduction in cholesteryl esters; for change in vivo at 50 mg/kg: 50 mpk
# Description: In Vivo Assay of Hypolipidemic Agents Using the Hyperlipidemic Hamster
# Hamsters are separated into groups of six and given a control cholesterol diet (Pudna Chow #5001 containing 0.5% cholesterol) for seven days. Diet consumption is monitored to determine dietary cholesterol exposure in the face of test compounds. The animals are dosed with the test compound once daily beginning with the initiation of diet. Dosing is by oral gavage of 0.2 mL of corn oil alone (control group) or solution (or suspension) of test compound in corn oil. All animals moribund or in poor physical condition are euthanized. After seven days, the animals are anesthetized by […] of ketamine and sacrificed by decapitation. Blood is collected into vacutainer tubes containing EDTA for plasma lipid analysis and the liver excised for tissue lipid analysis. Data is reported as percent reduction of lipid versus control.
# as §1
SMILES,ACAT % Inhibition (ACAT) [%],change in vivo at 50 mg/kg (cholesteryl esters) [%],change in vivo at 10 mg/kg (cholesteryl esters; 10 mpk) [%]
CCCCCCCC/C=C\CCCCCCCC(=O)N[C@@H]1c2ccccc2CC[C@@H]1c1ccc(O)cc1 (relative stereo) [Example 4A],81,0,–
"Nc1cccc([C@H]2Cc3ccccc3[C@H]2NC(=O)C(c2ccccc2)c2ccccc2)c1 (relative stereo) [Example 5A, cis-N-[2-(3'-aminophenyl)indanyl]-α-phenylbenzeneacetamide]",95,–,0
"COc1ccc([C@H]2CCc3ccccc3[C@@H]2NC(=O)N(c2ccccc2)c2ccccc2)cc1 (relative stereo) [Example 6, trans-N'-[2-(4'-methoxyphenyl)-1,2,3,4-tetrahydronaphthalen-1-yl]-N,N-diphenylurea]",97,-16,–
"O=C(N[C@@H]1c2ccccc2C[C@@H]1c1ccc(O)c(Cl)c1)C(c1ccccc1)c1ccccc1 (relative stereo) [Example 8, cis-N-[2-(3'-chloro-4'-hydroxyphenyl)indanyl]-α-phenylbenzeneacetamid]",99,-40,–
"O=C(N[C@@H]1c2ccccc2C[C@@H]1c1cc(Cl)c(O)c(Cl)c1)C(c1ccccc1)c1ccccc1 (relative stereo) [Example 8A, cis-N-[2-(3',5'-dichloro-4'-hydroxyphenyl)indanyl]-α-phenylbenzeneacetamide]",99,-14,–
"O=C(N[C@@H]1c2ccccc2C[C@@H]1c1ccc(O)c(Br)c1)C(c1ccccc1)c1ccccc1 (single isomer, unassigned) [Example 7, (+)-cis-N-[2-(3'-bromo-4'-hydroxyphenyl]indanyl]-α-phenylbenzeneacetamide]",100,-40,–
"Cc1cc([C@H]2Cc3ccccc3[C@H]2NC(=O)C(c2ccccc2)c2ccccc2)ccc1O (single isomer, unassigned) [Example 9, (+)-cis-N-[2-(4'-hydroxy-3'-methylphenyl)indanyl]-α-phenylbenzeneacetamide]",98,-66,–
"Cc1cc([C@H]2Cc3ccccc3[C@H]2NC(=O)C(c2ccccc2)c2ccccc2)cc(C)c1O (single isomer, unassigned) [Example 9A, (+)-cis-N-[2-(3',5'-dimethyl-4'-hydroxyphenyl)indanyl]-α-phenylbenzeneacetamide]",97,-60,–
